What is called EC50 is the concentration that produces a half-maximal response.

Drawing on patent US20050065099A1, “Treatment of mitochondrial diseases” (priority 2003, published 2005), this text covers EC50 for 30 molecules.

Each structure is given as a SMILES string.

For one assay, the system named is dopaminergic neuronal cell line. The assay can be described thus: High glutamate-induced oxidative stress assay (HGOS). As to conditions: Mus musculus; 30 mM glutamate, 16 hrs, Cell Tracker Green; read-out: EC50 for protection against HGOS cell injury and cell death. It counts as cell-based. The source says:
Protection against redox stress can be further evaluated in cell culture using high glutamate induced oxidative stress (HGOS) in mouse dopaminergic cell lines. The cytotoxic effect of glutamate is not due to excitotoxicity, as this cell line is devoid of inotropic glutamate receptors. Rather, the glutamate-induced toxicity of dopaminergic cells is associated with an inhibition of cystine transport which subsequently leads to depletion of intracellular glutathione (GSH) levels (Murphy T. H., et al. Neuron 2, 1547-1558, 1989), activation of neuronal 12-lipoxygenase (Li, Y. et al., Neuron 19,453-463, 1997), increased ROS production (Tan S. et al., J. Cell Biol. 141, 1423-1432, 1998) and elevated intracellular Ca^2+ (Li, Y. et al., see supra). Some molecules were measured for their ability to protect such cells against glutamate-induced stress and the assay is detailed in Examples.
This procedure was used to induce high glutamate-induced oxidative stress (HGOS) in a dopaminergic neuronal cell line. Using this assay the potency and efficacy of test articles against HGOS neuronal cell injury and cell death was established in a high throughput manner.
The cells were seeded into 96-well plates at a density of 2000 per well and left to grow for 72 hours in a 33° C. incubator with 5% CO2 in air atmosphere. The passage number of the cells for each assay experiment were no later than p11 in order to minimize experimental variation.
All compounds were dissolved in DMEM-No Glu containing 1 mM glucose, 30 mM glutamate and 1× Pen/Strep. DMEM-No Glu with 1 mM glucose and 1×P/S was used as the negative control, DMEM-No Glucose with 1 mM glucose, […] was used as a positive control and 100 μM Glutathione was added to the positive control as a standard. All of the procedures for this involving the making and dilution of compounds were performed using aseptic conditions and with minimal light.
The plates were removed from the incubator and examined under the microscope for morphological appearance and density. Using an aseptic technique and an 8-channel aspirator the media was carefully removed from the cells and replaced with 200 μl of 1×HBSS. This was done as quickly as possible to prevent the cells drying out. The plates were then placed in the humidified 37° C. incubators of the Biomek 2000 Side Loader. Four plates were washed at a time so as to minimize the time that the cells were sitting in 1×HBSS prior to addition of the compound test solution.
The Beckman Biomek workstations were used to load the compounds and controls from the mother plates onto the cell plates that were prewashed with HBSS under sterile conditions. The plates were incubated in the upper HTS incubator at 37° C. in 5% CO2 for exactly 16 hrs. The following day, using the Beckman Biomek workstations, the plates were removed from the incubator. Using Cell Tracker Addition, the compounds were removed from the plates, washed once with […] of pre-warmed 1×HBSS and then 100 μL of 5 μM Cell Tracker Green was added to each well. The plates were incubated at 37° C. for 30 min to allow the dye to enter the cell and be cleaved by the esterases. After washing the cells twice with prewarmed 1×HBSS, the plates were read with the 485 excitation; 538 emission filter pair on a Fluoroskan.
For the molecule `Cc1c(C)c2c(c(C)c1O)C=CC(C)(C)O2` [2,2,5,7,8-Pentamethyl-2H-chromen-6-ol], the EC50 is no more than 5 µM. Turning to `Cc1c(O)c(C)c([N+](=O)[O-])c2c1CCC(C)(C)O2` [2,2,5,7-Tetramethyl-8-nitro-chroman-6-ol], the half-maximal effective concentration (EC50) was no more than 5 µM. As for `Cc1cc(O)c(C)c2c1OC(C)(C)CC2` [2,2,5,8-Tetramethyl-chroman-6-ol], the half-maximal effective concentration (EC50) was no more than 5 µM.

On to `Cc1c(C)c2c(c(CCC(C)C)c1O)CCC(C)(C)O2` [2,2,7,8-Tetramethyl-5-(3-methyl-butyl)-chroman-6-ol], for which the 50% effective concentration (EC50) is no more than 5 µM. With `Cc1c(O)cc2c(c1C)OC(C)(C)CC2` [2,2,7,8-Tetramethyl-chroman-6-ol], the EC50 was no more than 5 µM. In the case of `CC(C)=CCc1c(O)c(C)c(C)c2c1CCC(C)(CCCl)O2` (stereo not shown) [2-(2-Chloro-ethyl)-2,7,8-trimethyl-5-(3-methyl-but-2-enyl)-chroman-6-ol], the half-maximal effective concentration (EC50) was no more than 5 µM. Same read-out and setting: under `Cc1c(O)cc2c(c1C)OC(C)(CCCl)CC2` (stereo not shown) [2-(2-chloro-ethyl)-2,7,8-trimethyl-chroman-6-ol] stands no more than 5 µM.

`Cc1c(O)cc2c(c1C)OC(C)(CCCCl)CC2` (stereo not shown) [2-(3-Chloro-propyl)-2,7,8-trimethyl-chroman-6-ol]: the concentration giving a half-maximal response (EC50) is no more than 5 µM. The same measure, in the same setting: under `Cc1c(C)c2c(c(CC(CO)CO)c1O)CCC(C)(C)O2` [2-(6-Hydroxy-2,2,7,8-tetramethyl-chroman-5-ylmethyl)-propane-1,3-diol] stands no more than 5 µM; under `Cc1c(C)c2c(c(C)c1O)CCC(C)(COCC(=O)Nc1cccc(C(F)(F)F)c1)O2` (stereo not shown) [2-(6-Hydroxy-2,5,7,8-tetramethyl-chroman-2-ylmethoxy)-N-(3-trifluoromethyl-phenyl)-acetamide], no more than 5 µM; under `C#CC1(C)CCc2c(C)c(O)c(C)c(C)c2O1` (stereo not shown) [2-Ethynyl-2,5,7,8-tetramethyl-chroman-6-ol], no more than 5 µM. On the same count and under the same terms, under `Cc1c(C)c2c(c(C)c1O)CCC(C)(CO)O2` (stereo not shown) [2-Hydroxymethyl-2,5,7,8-tetramethyl-chroman-6-ol] stands no more than 5 µM. With `Cc1c(C)c2c(c(Br)c1O)CCC(C)(CCC(=O)O)O2` (stereo not shown) [3-(5-Bromo-6-hydroxy-2,7,8-trimethyl-chroman-2-yl)-propionic acid], the EC50 was no more than 5 µM.

Take `Cc1c(O)cc2c(c1C)OC1(C)CCCC2C1` (stereo not shown) [5,6,9-Trimethyl-8-oxa-tricyclo[7.3.1.0^2,7]trideca-2,4,6-trien-4-ol]: the EC50 was no more than 5 µM. The same measure, in the same setting: under `Cc1c(C)c2c(c(C(C)O)c1O)CCC(C)(C)O2` (stereo not shown) [5-(1-Hydroxy-ethyl)-2,2,7,8-tetramethyl-chroman-6-ol] stands no more than 5 µM.

For `Cc1c(C)c2c(c(CCO)c1O)CCC(C)(C)O2` [5-(2-Hydroxy-ethyl)-2,2,7,8-tetramethyl-chroman-6-ol], the concentration giving a half-maximal response (EC50) is no more than 5 µM. Still for that read-out and setting: under `Cc1c(C)c2c(c(CN3CCN(Cc4ccccc4)CC3)c1O)CCC(C)(CCCC(C)CCCC(C)CCCC(C)C)O2` (stereo not shown) [5-(4-Benzyl-piperazin-1-ylmethyl)-2,7,8-trimethyl-2-(4,8,12-trimethyl-tridecyl)-chroman-6-ol] stands no more than 5 µM; under `Cc1c(C)c2c(c(CO)c1O)CCC(C)(C)O2` [5-Hydroxymethyl-2,2,7,8-tetramethyl-chroman-6-ol], no more than 5 µM. Turning to `Cc1c(O)cc2c(c1C)OC(C)(CCCC1SC(=O)NC1=O)CC2` (stereo not shown) [5-[3-(6-Hydroxy-2,7,8-trimethyl-chroman-2-yl)-propyl]-thiazolidine-2,4-dione], the EC50 was no more than 5 µM. Still for that read-out and setting: under `Cc1c(O)c(C)c2c(c1C=O)OC(C)(C)CC2` [6-Hydroxy-2,2,5,7-tetramethyl-chroman-8-carbaldehyde] stands no more than 5 µM; under `Cc1c(C)c2c(c(C)c1O)CCC(C)(C(=N)N)O2` (stereo not shown) [6-Hydroxy-2,5,7,8-tetramethyl-chroman-2-carboxamidine], no more than 5 µM; under `COc1cccc2c(O)cc3c(c12)OC(C)(C)CC3` [10-Methoxy-2,2-dimethyl-3,4-dihydro-2H-benzo[h]chromen-6-ol], no more than 5 µM. Same read-out and setting: under `Cc1c(C)c2c(c(C)c1O)CCC(C)(C(=O)N1CCNCC1)O2` (stereo not shown) [(6-Hydroxy-2,5,7,8-tetramethyl-chroman-2-yl)-piperazin-1-yl-methanone] stands no more than 5 µM; under `CC(=O)N(C)CC1(C)CCc2c(C)c(O)c(C)c(C)c2O1` (stereo not shown) [N-(6-Hydroxy-2,5,7,8-tetramethyl-chroman-2-ylmethyl)-N-methyl-acetamide], no more than 5 µM.

The subject of the next assay is FRDA fibroblasts. In words: FRDA fibroblast assay for protection from oxidative stress. It counts as cell-based. Particulars: Homo sapiens, 24 h preincubation, 1 mM BSO, compared to untreated FRDA fibroblasts, read-out: EC50 for reduction of cell death in FRDA fibroblasts. The source says: A cellular assay using FRDA-patient derived fibroblasts (as described by Jauslin, M L et al, Human Molecular Genetics 11; 3055-3063 (2002)); is used to determine the cell protecting effect of the test compounds by analyzing survival of dermal fibroblasts taken from FRDA patients and unaffected normal donors under conditions of partial GSH depletion. Exposure of FRDA fibroblasts to BSO (L-buthionine (S,R)-sulfoximine) under conditions of restricted selenium causes depletion of cellular glutathione (GSH) and severe plasma membrane damage leading to cell death. Preincubation with the test compounds before the addition of BSO is used to determine if they can protect FRDA cells from BSO-mediated cell death.
Primary fibroblasts were derived from donors with a molecular diagnosis of FRDA and control donors with no mitochondrial disease. Lines F2, C2 and C3 were obtained from Coriell Cell Repositories (Camden, N.J., USA; catalog #'s GM04078, GM 08402 and GM08399, respectively). All cell types were diagnosed at the molecular level for intronic GAA triplet repeat length in the trataxin gene using a PCR-based method, according to methods known in the art. […] The cells were seeded in microtiter plates at a density of 4000 cells per 100 μl in growth medium consisting of 25% (v/v) M199 EBS and 64% (v/v) MEM EBS without phenol red (Bioconcept, Allschwil, Switzerland) supplemented with 10% (v/v) fetal calf serum (PAA Laboratories, Linz, Austria), 100 U/ml penicillin, 100 μg/ml streptomycin (PAA Laboratories, Linz, Austria), 10 μg/ml insulin (Sigma, Buchs, Switzerland), 10 μg/ml EGF (Sigma, Buchs, Switzerland), 10 μg/ml bFGF (PreproTech, Rocky Hill, N.J., USA) and 2 mM glutamine (Sigma, Buchs, Switzerland). The cells were incubated in the presence of the various test compounds for 24 h before addition of 1 mM BSO (L-buthionine (S,R)-sulfoximine).
Cell viability was measured after the first signs of toxicity appeared in the BSO-treated controls (typically after 16-48 h). The cells were stained for 60 min at room temperature in PBS with 1.2 μm calceinAM and 4 μm ethidium homodimer (Live/Dead assay, Molecular Probes, Eugene, Oreg., USA). Fluorescence intensity was measured with a Gemini Spectramax XS spectrofluorimeter (Molecular Devices, Sunnyvale, Calif., USA) using excitation and emission wavelengths of 485 and 525 nm, respectively.
On to `Cc1c(C)c2c(c(CCC(C)C)c1O)CCC(C)(C)O2` [2,2,7,8-Tetramethyl-5-(3-methyl-butyl)-chroman-6-ol], for which the half-maximal effective concentration (EC50) lay in the range of 0.01 to 6 µM.

As for `CC(C)=CCc1c(O)c(C)c(C)c2c1CCC(C)(CCCl)O2` (stereo not shown) [2-(2-Chloro-ethyl)-2,7,8-trimethyl-5-(3-methyl-but-2-enyl)-chroman-6-ol], the EC50 lay within 0.01 to 6 µM. `Cc1c(O)cc2c(c1C)OC(C)(CCCl)CC2` (stereo not shown) [2-(2-chloro-ethyl)-2,7,8-trimethyl-chroman-6-ol]: the half-maximal effective concentration (EC50) is 0.01 to 6 µM. On to `Cc1c(C)c2c(c(CSCC(NC(=O)CCC(N)C(=O)O)C(=O)NCC(=O)O)c1O)CCC(C)(CCCC(C)CCCC(C)CCCC(C)C)O2` (stereo not shown) [2-Amino-4-{1-(carboxymethyl-carbamoyl)-2-[6-hydroxy-2,7,8-trimethyl-2-(4,8,12-trimethyl-tridecyl)-chroman-5-ylmethylsulfanyl]-ethylcarbamoyl}-butyric acid], for which the EC50 was in the range of 0.01 to 6 µM. Turning to `Cc1c(O)cc2c(c1C)OC(C)(CCC(=O)NC(CCC(=O)NC(CS)C(=O)NCC(=O)O)C(=O)O)CC2` (stereo not shown) [4-[1-(Carboxymethyl-carbamoyl)-2-mercapto-ethylcarbamoyl]-2-[3-(6-hydroxy-2,7,8-trimethyl-chroman-2-yl)-propionylamino]-butyric acid], the half-maximal effective concentration (EC50) fell in the range of 0.01 to 6 µM. Same read-out and setting: under `Cc1c(O)cc2c(c1C)OC(C)(CCCC1SC(=O)NC1=O)CC2` (stereo not shown) [5-[3-(6-Hydroxy-2,7,8-trimethyl-chroman-2-yl)-propyl]-thiazolidine-2,4-dione] stands 0.01 to 6 µM; under `Cc1cc(O)cc2c1OC(C)(CCCC(C)CCCC(C)CCCC(C)C)CC2` (stereo not shown) [Delta tocopherol, 2,8-dimethyl-2-(4,8,12-trimethyl-tridecyl)-chroman-6-ol], 0.01 to 6 µM; under `CC(C)=CCCC(C)=CCCC(C)=CCCC1(C)CCc2cc(O)cc(C)c2O1` (stereo not shown) [Delta tocotrienol, 2,8-dimethyl-2-(4,8,12-trimethyl-trideca-3,7,11-trienyl)-chroman-6-ol], 0.01 to 6 µM. On to `Cc1c(O)cc2c(c1C)OC(C)(CCCC(C)CCCC(C)CCCC(C)C)CC2` (stereo not shown) [Gamma-tocopherol, 2,7,8-trimethyl-2-(4,8,12-trimethyltridecyl)-6-chromanol], for which the concentration for a half-maximal effect (EC50) was in the range of 0.01 to 6 µM.

For the molecule `CC(C)=CCCC(C)=CCCC(C)=CCCC1(C)CCc2cc(O)c(C)c(C)c2O1` (stereo not shown) [Gamma-tocotrienol, 2,7,8-trimethyl-2-(4,8,12-trimethyl-trideca-3,7,11-trienyl)-chroman-6-ol], the concentration giving a half-maximal response (EC50) fell in the range of 0.01 to 6 µM.
